Where two headings read alike, the source gives them in different places.
What was measured:
S. aureus JAR060131 = assay type: cell-based, Staphylococcus aureus; conditions: for IC99.9: approx. 1 × 10^6 CFU/ml S. aureus JAR, within 2 hrs (Table 2)
Experimental: Polypeptides of the invention preferably have an in vitro IC99.9 of at most 150 μM after 2 hours at 37° C. against at least one microbial species in the presence of 50% plasma. Said IC99.9 is preferably determined in accordance with a method for determining the antimicrobial activity as described herein in the Examples. Said method described in the Examples for determining antimicrobial activity of microbes not associated with biofilm involves the mixing of 50 microL of a solution of a polypeptide in PBS with addition of human plasma at a final concentration of 50% and 20 microL of bacterial suspension with 5×10^6 CFU per mL of PBS in a well. After incubation of this mixture for 2 hours at 37° C. under shaking conditions, a sample is used for assessment of the bacterial counts. The lowest peptide concentration at which there is 99.9% of bacteria killed, is called the inhibitory concentration (IC) 99.9. Bacterial counts can be determined by manual CFU counting. For determining antibacterial activity for instance 1×10^6 CFU/ml bacteria are used, for determining antifungal activity for instance 1×10^5 cells/ml are used.
(§1) Peptides were incubated with 1×10^6 CFU/ml of a mid-logarithmic culture of S. aureus JAR060131, methicillin resistant S. aureus (MRSA) LUH14616, Staphylococcus epidermidis RP62a, and Pseudomonas aeruginosa PAO1 in PBS without or with addition of pooled human plasma (Sanquin, Amsterdam, the Netherlands) at a final concentration of 50%. Antimicrobial activity is expressed as the 99.9% lethal concentration (LC99.9), i.e., the lowest peptide concentration which killed ≥99.9% of bacteria after 2 hours of incubation at 37° C. under shaking conditions.

[1] = test system: methicillin resistant S. aureus (MRSA) LUH14616; assay type: cell-based, Staphylococcus aureus
Experimental: as §1

[2] = test system: Pseudomonas aeruginosa PAO1; assay type: cell-based
Experimental: as §1

[3] = test system: Staphylococcus epidermidis RP62a; assay type: cell-based
Experimental: as §1

[4] = test system: stationary phase S. aureus JAR060131; assay type: cell-based, Staphylococcus aureus
Experimental: Bacteria were stored at −80° C. until use. Inoculi of mid log phase bacteria were prepared by incubating isolated bacterial colonies from blood agar plates in Tryptic Soy Broth (TSB) medium (Becton Dickinson, Le Pont de Clax, France) for 2.5 hours and then diluted to the concentration needed. Stationary phase S. aureus JAR060131 was obtained from 18-20 hour cultures.
To assess the antimicrobial activity of the peptides towards stationary phase bacteria, peptides were incubated under the conditions described above with 1×10^6 CFU/ml of stationary phase S. aureus JAR060131, obtained from 18-20 hour cultures.

[5] = test system: S. aureus JAR060131 biofilm formation; assay type: cell-based, Staphylococcus aureus
Experimental: After solubilization with ethanol, the optical density at 590 nm is determined as a measure of biofilm mass.
Peptides were incubated with 1×10^8 CFU/ml of S. aureus JAR060131 in biofilm-adjusted BM2 in 96-wells polypropylene plates as described in Antimicrob Agents Chemother 2012; 56: 2696-2704. After 24 hours incubation at 37° C., planktonic bacteria were removed by four washes with PBS and biofilms were stained with crystal violet. After solubilization with ethanol, the optical density at 590 nm was determined as a measure of biofilm mass.
To assess the antibiofilm activity of the peptides in the presence of plasma, 96-wells polypropylene plates were coated with plasma by overnight incubation with 20% plasma at 4° C. Wells were washed once with sterile water and inoculated with S. aureus and peptides as described above.

[6] = test system: LPS (E. coli 054)-induced IL-12p40 production; experiment: LPS neutralization in whole human blood; assay type: cell-based
Description: The term “anti-inflammatory activity” of a polypeptide as used herein refers to inhibiting, reducing or preventing an inflammatory response in a subject that has been infected by microbes, e.g. bacteria, viruses, fungi, and/or parasites. Anti-inflammatory activity of polypeptides of the invention is achieved by inhibiting, reducing or preventing the release of pro-inflammatory microbial compounds, such as lipoteichoic acid (LTA), peptidoglycan (PG) and/or lipopolysaccharides (LPS). Anti-inflammatory activity can be measured by methods known in the art. Examples of such method are a LPS neutralization assay and a LTA neutralization assay as described in the Examples of this application. In such method, a polypeptide of the invention is mixed with a fixed concentration of LPS or LTA, such as 500 ng/ml LPS or 2 mg/ml LTA, and incubated for 30 min. Thereafter, these mixtures were added to diluted fresh human whole blood and 20 hours thereafter the level of cytokines (e.g. 1L-8 for LTA and 1L-12p40 for LPS) in the blood sample are measured by ELISA.
(§2) Peptides were pre-incubated with 500 ng/ml LPS (E. coli 054) or 2 mg/ml LTA (S. aureus, endotoxin-free) or 1×10^9 CFU/ml of UV-killed S. aureus JAR060131 for 30 min at 37° C. Diluted whole human blood was stimulated with the peptide-LPS/LTA/S. aureus mixtures for 20 hours at 37° C. IL-12p40 and IL-8 levels in supernatants were determined using ELISA.

[7] = test system: UV-killed S. aureus JAR060131-induced IL-8 production; experiment: S. aureus neutralization in whole human blood; assay type: cell-based; conditions: UV-killed S. aureus JAR060131-induced IL-8; blood from one donor
Experimental: as §2

[8] = 50% plasma, mid-logarithmic culture, median (Table 3)

Substance: Ac-IGKEFKRIVERIKRFLRELVRPLR-NH2 [OP-145, JIGKEFKRIVERIKRFLRELVRPLRB, reference compound]
- IC99.9 (S. aureus JAR060131; 50% plasma): 204.8 µM
- LC99.9 (S. aureus JAR060131; 50% plasma, mid-logarithmic culture, median of at least two experiments (Table 3)): 204.8 µM
- LC99.9 (S. aureus JAR060131; JAR060131, 2 h): 1.6 µM
- IC99.9 (S. aureus JAR060131; PBS): 1.6 µM
- LC99.9 [1, 8]: 204.8 µM
- LC99.9 ([1]; methicillin resistant LUH14616): 1.6 µM
- LC99.9 [2, 8]: >204.8 µM
- LC99.9 ([2]; PAO1): 3.2 µM
- LC99.9 [3, 8]: 204.8 µM
- LC99.9 ([3]; RP62a): 0.8 µM
- LC99.9 ([4]; 50% plasma, stationary suspension, mean of three experiments (Table 4)): >204.8 µM
- LC99.9 ([4]; stationary phase JAR060131): 1.6 µM
- IC50 ([5]; JAR060131 biofilm formation, 24 h): 3200 nM
- IC50 ([5]; plasma-coated wells (FIG. 3B), read-out: concentration inhibiting biofilm formation for 50%): 3200 nM
- IC90 ([6]; LPS-induced IL-12p40, blood from two donors): 1.25 nM
- IC50 ([6]; diluted whole human blood, 20 hours): 0.15 nM
- IC50 [7]: 0.195 µM

From patent US10130677B2, “Antimicrobial peptide and uses thereof” (priority 2013, dated 2018)
